Experimental findings from PubChem BioAssay (NCI) are described below.

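The compound was tested at five concentrations on cells cultured in 96-well plates, with a 48-hour exposure period. TGI is the concentration that stops growth completely.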

Some test systems named below: 786-0 renal; COLO 205 colon; HOP-92 NSCLC; MALME-3M melanoma; MOLT-4 leukemia; NCI-H23 lung; NCI-H522 lung; OVCAR-5 ovarian; OVCAR-8 ovarian; RPMI-8226 leukemia; SF-295 CNS; SK-OV-3 ovarian; SNB-19 CNS; SW-620 colon; UACC-257 melanoma; BT-549 breast; DU-145 prostate; NCI/ADR-RES ovarian; T-47D breast.
Common to all, as to experiment: growth of human tumour cells (NCI), 48 h

For the compound `NC(CCCCNCc1ccccc1O)C(=O)O` (stereo unspecified), the TGI in the experiment with 786-0 renal, in the experiment with COLO 205 colon, in the experiment on HOP-92 NSCLC, in the experiment on MALME-3M melanoma, with MOLT-4 leukemia and in the experiment with NCI-H23 lung was more than 100 µM in each case. Moreover, the TGI with NCI-H522 lung, in the experiment on OVCAR-5 ovarian, with OVCAR-8 ovarian, with RPMI-8226 leukemia, with SF-295 CNS and in the experiment on SK-OV-3 ovarian was more than 100 µM in each case. Moreover, the TGI in the experiment with SNB-19 CNS, in the experiment with SW-620 colon and in the experiment with UACC-257 melanoma was more than 100 µM throughout.
Regarding `Cc1ccc(S(=O)(=O)N2CC(CCN)c3ccccc32)cc1` (stereo unspecified), the TGI in the experiment with 786-0 renal turned out to be 14.7 µM; with BT-549 breast, 21.9 µM; in the experiment on COLO 205 colon it was 24.3 µM; with DU-145 prostate, 31.3 µM; in the experiment with HOP-92 NSCLC, 52.7 µM; in the experiment on MALME-3M melanoma it was 17.6 µM. In addition, the TGI with MOLT-4 leukemia is more than 83.9 µM; in the experiment on NCI-H23 lung it was more than 52.6 µM; in the experiment with NCI-H522 lung it was 14.6 µM; in the experiment with NCI/ADR-RES ovarian it was 17 µM; in the experiment with OVCAR-5 ovarian it was 24 µM; in the experiment on OVCAR-8 ovarian it was 27 µM. In addition, the TGI is more than 63.6 µM in the experiment on RPMI-8226 leukemia; 33.5 µM in the experiment with SF-295 CNS; more than 44.7 µM with SK-OV-3 ovarian; 31.3 µM in the experiment with SNB-19 CNS; 18 µM in the experiment with SW-620 colon; 33.9 µM in the experiment on UACC-257 melanoma.
For `O=C(Nc1nc2ncn(CCO)c2c(=O)[nH]1)c1ccccc1`, the TGI in the experiment with 786-0 renal, in the experiment on COLO 205 colon, with HOP-92 NSCLC, in the experiment with MALME-3M melanoma, in the experiment with NCI-H522 lung and in the experiment on OVCAR-5 ovarian was more than 100 µM throughout. For the same compound, the TGI in the experiment on OVCAR-8 ovarian, in the experiment with RPMI-8226 leukemia, with SF-295 CNS, in the experiment with SK-OV-3 ovarian, with SNB-19 CNS and with SW-620 colon was more than 100 µM throughout. In the experiment with UACC-257 melanoma, this compound yielded a TGI of more than 100 µM.
Consider `COc1ccc(C(=O)Oc2c(C#N)sc3c2c(=O)n(-c2ccccc2)c(=S)n3-c2ccccc2)cc1`, for which the TGI is more than 100 µM in the experiment on 786-0 renal; 80.4 µM with COLO 205 colon; more than 100 µM in the experiment with DU-145 prostate; 67.5 µM with HOP-92 NSCLC; 46.5 µM with MOLT-4 leukemia; 56.3 µM in the experiment with NCI-H23 lung. Also, the TGI is 4.11 µM in the experiment with NCI-H522 lung; 52 µM in the experiment with NCI/ADR-RES ovarian; 68.5 µM with OVCAR-5 ovarian; more than 100 µM with OVCAR-8 ovarian; 47.1 µM in the experiment on RPMI-8226 leukemia; more than 100 µM in the experiment on SF-295 CNS. The TGI in the experiment with SK-OV-3 ovarian, in the experiment with SNB-19 CNS, in the experiment on SW-620 colon, in the experiment with T-47D breast and in the experiment on UACC-257 melanoma was more than 100 µM throughout.
For the compound `Cn1nc(-c2ccccc2)c(C(=O)/C=C/c2ccc(Cl)cc2)c(N2CCOCC2)c1=O`, the TGI with 786-0 renal was found to be 12.3 µM; with COLO 205 colon it was 3.79 µM; in the experiment on HOP-92 NSCLC, 9.36 µM; with MOLT-4 leukemia, 4.63 µM; with NCI-H23 lung it was 8.25 µM; in the experiment on NCI-H522 lung it was 9.46 µM. Also, the TGI in the experiment on OVCAR-8 ovarian stood at 26.2 µM; in the experiment with RPMI-8226 leukemia, 6.74 µM; in the experiment with SF-295 CNS, 4.79 µM; in the experiment with SK-OV-3 ovarian it was 19.7 µM; with SNB-19 CNS it was 29.3 µM; with SW-620 colon it was 21.5 µM.
Turning to `S=C(N/N=C/c1ccccn1)N1CCCCCC1`, the TGI in the experiment with 786-0 renal was 1.22 µM; in the experiment with BT-549 breast it was 22.6 µM; in the experiment on DU-145 prostate it was more than 100 µM; in the experiment with HOP-92 NSCLC, more than 100 µM; with MALME-3M melanoma, 42.4 µM; in the experiment with NCI-H23 lung, more than 58.6 µM. Also, the TGI with NCI-H522 lung is 5.9 µM; in the experiment on NCI/ADR-RES ovarian, 0.105 µM; in the experiment on OVCAR-5 ovarian, more than 54.2 µM; with OVCAR-8 ovarian, 12.7 µM; with RPMI-8226 leukemia it was 0.491 µM; in the experiment on SF-295 CNS, more than 100 µM. Moreover, the TGI was more than 100 µM in the experiment on SNB-19 CNS, more than 100 µM in the experiment with SW-620 colon and 0.169 µM in the experiment on UACC-257 melanoma.
`O=c1n(-c2ccccc2)c(=O)n2c(-c3ccccc3)c(-c3ccccc3)n12`: the TGI in the experiment on 786-0 renal, in the experiment with BT-549 breast, in the experiment with COLO 205 colon, in the experiment with HOP-92 NSCLC, in the experiment on MALME-3M melanoma and in the experiment on MOLT-4 leukemia was more than 100 µM each time. The TGI in the experiment on NCI-H23 lung, with NCI/ADR-RES ovarian, in the experiment with OVCAR-5 ovarian, in the experiment with OVCAR-8 ovarian, in the experiment on SF-295 CNS and with SK-OV-3 ovarian was more than 100 µM throughout. Besides, the TGI with SNB-19 CNS, in the experiment with SW-620 colon and in the experiment on UACC-257 melanoma was more than 100 µM in each case.
Consider `Nc1nc2c(ncn2CCCC(c2ccccc2)P(=O)(O)O)c(=O)[nH]1` (stereo unspecified), for which the TGI with 786-0 renal, with COLO 205 colon, with HOP-92 NSCLC, in the experiment with MALME-3M melanoma, in the experiment with MOLT-4 leukemia and in the experiment on NCI-H23 lung was more than 100 µM in each case. Besides, the TGI in the experiment with NCI-H522 lung, with OVCAR-5 ovarian, with OVCAR-8 ovarian, in the experiment on RPMI-8226 leukemia, with SF-295 CNS and with SK-OV-3 ovarian was more than 100 µM each time. Moreover, the TGI in the experiment on SNB-19 CNS, in the experiment with SW-620 colon and in the experiment with UACC-257 melanoma was more than 100 µM in each case.
`O=C1/C(=C/c2cccs2)NC(=S)N1CN1CCCCC1`: the TGI with 786-0 renal is more than 100 µM; in the experiment with COLO 205 colon it was 47.3 µM; in the experiment with DU-145 prostate it was more than 100 µM; in the experiment with HOP-92 NSCLC, more than 100 µM; in the experiment on MALME-3M melanoma it was more than 100 µM; in the experiment on MOLT-4 leukemia, more than 100 µM. The TGI in the experiment with NCI-H23 lung, in the experiment with NCI-H522 lung, with NCI/ADR-RES ovarian, in the experiment with OVCAR-5 ovarian, in the experiment with OVCAR-8 ovarian and in the experiment on RPMI-8226 leukemia was more than 100 µM in each case. For the same compound, the TGI in the experiment with SF-295 CNS, in the experiment with SK-OV-3 ovarian, in the experiment with SNB-19 CNS and with SW-620 colon was more than 100 µM in each case.
